{"source": "patent US20200022370A1", "about": "“MICROBIOCIDAL OXADIAZOLE DERIVATIVES” (SYNGENTA PARTICIPATIONS AG, priority 2016, published 2020)", "key": {"[1]": {"system": "Puccinia recondita f. Sp. Tritici", "assay": "Puccinia recondita f. sp. tritici / wheat / leaf disc preventative (brown rust)", "type": "in vivo", "conditions": "foliar, read-out: disease control", "description": "Leaf disks or leaf segments of various plant species are cut from plants grown in a greenhouse. The cut leaf disks or segments are placed in multiwell plates (24-well format) onto water agar. The leaf disks are sprayed with a test solution before (preventative) or after (curative) inoculation. Compounds to be tested are prepared as DMSO solutions (max. 10 mg/ml) which are diluted to the appropriate concentration with 0.025% Tween20 just before spraying. The inoculated leaf disks or segments are incubated under defined conditions (temperature, relative humidity, light, etc.) according to the respective test system. A single evaluation of disease level is carried out 3 to 14 days after inoculation, depending on the pathosystem. Percent disease control relative to the untreated check leaf disks or segments is then calculated.\nExample 1: Fungicidal Activity Against Puccinia recondita f. Sp. Tritici/Wheat/Leaf Disc Preventative (Brown Rust)\nWheat leaf segments cv. Kanzler were placed on agar in multiwell plates (24-well format) and sprayed with the Formulated test compound diluted in water. The leaf disks were inoculated with a spore suspension of the fungus 1 day after application. The inoculated leaf segments were incubated at 19° C. and 75% relative humidity (rh) under a light regime of 12 hours light/12 hours darkness in a climate cabinet and the activity of a compound was assessed as percent disease control compared to untreated when an appropriate level of disease damage appears in untreated check leaf segments (7 to 9 days after application).\nThe following compounds at 200 ppm in the applied Formulation give at least 80% disease control in this test when compared to untreated control leaf disks under the same conditions, which show extensive disease development."}, "[2]": {"system": "Glomerella lacenarium (Colletotrichum lacenarium)", "assay": "Glomerella lacenarium (Colletotrichum lacenarium) liquid culture / cucumber / preventative (anthracnose)", "type": "cell-based", "conditions": "read-out: disease control", "description": "Mycelia fragments or conidia suspensions of a fungus prepared either freshly from liquid cultures of the fungus or from cryogenic storage, are directly mixed into nutrient broth. DMSO solutions of the test compound (max. 10 mg/ml) are diluted with 0.025% Tween20 by a factor of 50 and 10 μl of this solution is pipetted into a microtiter plate (96-well format). The nutrient broth containing the fungal spores/mycelia fragments is then added to give an end concentration of the tested compound. The test plates are incubated in the dark at 24° C. and 96% relative humidity. The inhibition of fungal growth is determined photometrically after 2 to 7 days, depending on the pathosystem, and percent antifungal activity relative to the untreated check is calculated.\nExample 4: Fungicidal Activity Against Glomerella lacenarium (Colletotrichum lacenarium) Liquid Culture/Cucumber/Preventative (Anthracnose)\nConidia of the fungus from cryogenic storage are directly mixed into nutrient broth (PDB-potato dextrose broth). After placing a (DMSO) solution of test compound into a microtiter plate (96-well format), the nutrient broth containing the fungal spores is added. The test plates are incubated at 24° C. and the inhibition of growth is measured photometrically 3 to 4 days after application.\nThe following compounds at 20 ppm in the applied Formulation give at least 80% disease control in this test when compared to untreated control under the same conditions, which show extensive disease development."}, "[3]": {"conditions": "200 ppm in the applied formulation, wheat leaf segments cv. Kanzler, inoculated 1 day after application, vs untreated, 7 to 9 days after application"}, "[4]": {"conditions": "20 ppm, liquid culture in PDB, 24° C., inhibition of growth measured photometrically 3 to 4 days after application, vs untreated"}}, "note": "Where two headings read alike, the source gives them in different places."}
{"smiles": "CC(C)(C)OC(=O)NC(C(=O)Nc1ccc(-c2noc(C(F)(F)F)n2)cc1)c1ccccc1", "note": "(stereo not drawn) [Compound 1.18, tert-butyl N-[2-oxo-1-phenyl-2-[4-[5-(trifluoromethyl)-1,2,4-oxadiazol-3-yl]anilino]ethyl] carbamate]", "values": [{"measurement": "pest or weed control at 200 ppm", "setting": "[1]; [3]", "value": "≥ 80", "unit": "%"}]}
{"smiles": "O=C(CF)Nc1ccc(-c2noc(C(F)(F)F)n2)cc1", "note": "[Compound 1.19, 2-fluoro-N-[4-[5-(trifluoromethyl)-1,2,4-oxadiazol-3-yl]phenyl]acetamide]", "values": [{"measurement": "inhibition of growth at 20 ppm", "setting": "[2]", "value": "≥ 80", "unit": "%"}, {"measurement": "pest or weed control at 200 ppm", "setting": "[1]", "value": "≥ 80", "unit": "%"}]}
{"smiles": "CC=CC=CC(=O)NC1(C(=O)Nc2ccc(-c3noc(C(F)(F)F)n3)cc2)CCCC(C)C1", "note": "(stereo not drawn) [Compound 1.21, 1-(hexa-2,4-dienoylamino)-3-methyl-N-[4-[5-(trifluoromethyl)-1,2,4-oxadiazol-3-yl]phenyl]cyclo-hexanecarboxamide]", "values": [{"measurement": "pest or weed control at 200 ppm", "setting": "[1]; [3]", "value": "≥ 80", "unit": "%"}]}
{"smiles": "CC(=O)Nc1ccc(CC(=O)Nc2ccc(-c3noc(C(F)(F)F)n3)cc2)cc1", "note": "[Compound 1.26, 2-(4-acetamidophenyl)-N-[4-[5-(trifluoromethyl)-1,2,4-oxadiazol-3-yl]phenyl]acetamide]", "values": [{"measurement": "pest or weed control at 200 ppm", "setting": "[1]; [3]", "value": "≥ 80", "unit": "%"}]}
{"smiles": "O=C(CSc1ccccc1)Nc1ccc(-c2noc(C(F)(F)F)n2)cc1", "note": "[Compound 1.44, 2-phenylsulfanyl-N-[4-[5-(trifluoromethyl)-1,2,4-oxadiazol-3-yl]phenyl]acetamide]", "values": [{"measurement": "inhibition of growth at 20 ppm", "setting": "[2]; [4]", "value": "≥ 80", "unit": "%"}, {"measurement": "pest or weed control at 200 ppm", "setting": "[1]; [3]", "value": "≥ 80", "unit": "%"}]}
{"smiles": "N#Cc1cc(F)c(C(=O)Nc2ccc(-c3noc(C(F)(F)F)n3)nc2)c(F)c1", "note": "[Compound 1.49, 4-cyano-2,6-difluoro-N-[6-[5-(trifluoromethyl)-1,2,4-oxadiazol-3-yl]-3-pyridyl]benzamide]", "values": [{"measurement": "pest or weed control at 200 ppm", "setting": "[1]; [3]", "value": "≥ 80", "unit": "%"}]}
{"smiles": "O=C(CCc1ccccc1)Nc1ccc(-c2noc(C(F)(F)F)n2)cc1", "note": "[Compound 1.76, 3-phenyl-N-[4-[5-(trifluoromethyl)-1,2,4-oxadiazol-3-yl]phenyl] propanamide]", "values": [{"measurement": "inhibition of growth at 20 ppm", "setting": "[2]; [4]", "value": "≥ 80", "unit": "%"}, {"measurement": "pest or weed control at 200 ppm", "setting": "[1]; [3]", "value": "≥ 80", "unit": "%"}]}
{"smiles": "O=C(CC1CC1)Nc1ccc(-c2noc(C(F)(F)F)n2)cc1", "note": "[Compound 1.80, 2-cyclopropyl-N-[4-[5-(trifluoromethyl)-1,2,4-oxadiazol-3-yl]phenyl]acetamide]", "values": [{"measurement": "inhibition of growth at 20 ppm", "setting": "[2]; [4]", "value": "≥ 80", "unit": "%"}, {"measurement": "pest or weed control at 200 ppm", "setting": "[1]; [3]", "value": "≥ 80", "unit": "%"}]}
{"smiles": "O=C(Nc1ccc(-c2noc(C(F)(F)F)n2)cc1)C1CSC1", "note": "[Compound 1.82, N-[4-[5-(trifluoromethyl)-1,2,4-oxadiazol-3-yl]phenyl]thietane-3-carboxamide]", "values": [{"measurement": "inhibition of growth at 20 ppm", "setting": "[2]; [4]", "value": "≥ 80", "unit": "%"}, {"measurement": "pest or weed control at 200 ppm", "setting": "[1]; [3]", "value": "≥ 80", "unit": "%"}]}
{"smiles": "COC(=O)CCC(=O)Nc1ccc(-c2noc(C(F)(F)F)n2)cc1", "note": "[Compound 1.83, methyl 4-oxo-4-[4-[5-(trifluoromethyl)-1,2,4-oxadiazol-3-yl]anilino]butanoate]", "values": [{"measurement": "inhibition of growth at 20 ppm", "setting": "[2]; [4]", "value": "≥ 80", "unit": "%"}, {"measurement": "pest or weed control at 200 ppm", "setting": "[1]; [3]", "value": "≥ 80", "unit": "%"}]}
{"smiles": "O=C(Cc1cccnc1)Nc1ccc(-c2noc(C(F)(F)F)n2)cc1", "note": "[Compound 1.84, 2-(3-pyridyl)-N-[4-[5-(trifluoromethyl)-1,2,4-oxadiazol-3-yl]phenyl]acetamide]", "values": [{"measurement": "inhibition of growth at 20 ppm", "setting": "[2]; [4]", "value": "≥ 80", "unit": "%"}, {"measurement": "pest or weed control at 200 ppm", "setting": "[1]; [3]", "value": "≥ 80", "unit": "%"}]}
{"smiles": "C=CCCC(=O)Nc1ccc(-c2noc(C(F)(F)F)n2)cc1", "note": "[Compound 1.88, N-[4-[5-(trifluoromethyl)-1,2,4-oxadiazol-3-yl]phenyl]pent-4-enamide]", "values": [{"measurement": "inhibition of growth at 20 ppm", "setting": "[2]; [4]", "value": "≥ 80", "unit": "%"}, {"measurement": "pest or weed control at 200 ppm", "setting": "[1]; [3]", "value": "≥ 80", "unit": "%"}]}
{"smiles": "O=C(Cc1cccs1)Nc1ccc(-c2noc(C(F)(F)F)n2)cc1", "note": "[Compound 1.89, 2-(2-thienyl)-N-[4-[5-(trifluoromethyl)-1,2,4-oxadiazol-3-yl]phenyl]acetamide]", "values": [{"measurement": "inhibition of growth at 20 ppm", "setting": "[2]; [4]", "value": "≥ 80", "unit": "%"}, {"measurement": "pest or weed control at 200 ppm", "setting": "[1]; [3]", "value": "≥ 80", "unit": "%"}]}
{"smiles": "C=CCC(=O)Nc1ccc(-c2noc(C(F)(F)F)n2)cc1", "note": "[Compound 1.94, N-[4-[5-(trifluoromethyl)-1,2,4-oxadiazol-3-yl]phenyl]but-3-enamide]", "values": [{"measurement": "inhibition of growth at 20 ppm", "setting": "[2]; [4]", "value": "≥ 80", "unit": "%"}, {"measurement": "pest or weed control at 200 ppm", "setting": "[1]; [3]", "value": "≥ 80", "unit": "%"}]}
